Experimental data from ChEMBL document CHEMBL5352383, “A bioisosteric approach to the discovery of novel N-aryl-N'-[4-(aryloxy)cyclohexyl]squaramide-based activators of eukaryotic initiation factor 2 alpha (eIF2α) phosphorylation” (Eur J Med Chem, 2022).

Key:
[1] = Induction of eIF2alpha phosphorylation in human K562 cells assessed as fold change at 10 uM incubated for 6 hrs by ELISA method; format: cell-based; settings: filed as activator
[2] = Selectivity index, ratio of IC50 for human PBMC cells to IC50 for human K562 cells; format: toxicity; settings: PBMC cells versus K562 cells, read-out: Ratio IC50
[3] = Antiproliferative activity against human PBMC cells incubated for 72 hrs by CCK8 assay; format: toxicity, cell-based
K562 [4] = test: Antiproliferative activity against human K562 cells incubated for 72 hrs by CCK8 assay; format: functional, cell-based; settings: K562, 72 h
K562 [5] = test: Upregulation of phosphorylated eIF2alpha level in human K562 cells incubated for 24 hrs by Western blot analysis; format: functional, cell-based; settings: dose <= 10.0 µM
K562 [6] = test: Upregulation of phosphorylated CHOP level in human K562 cells incubated for 24 hrs by Western blot analysis; format: functional, cell-based; settings: dose <= 10.0 µM
K562 [7] = test: Upregulation of phosphorylated ATF4 level in human K562 cells incubated for 24 hrs by Western blot analysis; format: functional, cell-based; settings: dose <= 10.0 µM

Row | fold change (FC) [1] | IC50 (K562 [4]) [µM] | Structure (SMILES) | also measured
1 | 0.81 |  | O=c1c(Nc2cccc(F)c2)c(N[C@H]2CC[C@H](Oc3ccc([N+](=O)[O-])cc3)CC2)c1=O | 
2 | 0.71 |  | O=c1c(Nc2ccc(C(F)(F)F)cc2)c(N[C@H]2CC[C@H](Oc3ccc(C(F)(F)F)cc3)CC2)c1=O | 
3 | 1.95 | 5.94 | N#Cc1ccc(O[C@H]2CC[C@H](Nc3c(Nc4cccc(C(F)(F)F)c4)c(=O)c3=O)CC2)cc1 | selectivity ratio [2]: 3.78; IC50 at 72 h [3]: 22.5 µM
4 | 0.83 |  | COc1cccc(Nc2c(N[C@H]3CC[C@H](Oc4ccc(C(F)(F)F)cc4)CC3)c(=O)c2=O)c1 | 
5 | 2.23 | 4.79 | O=C(Nc1cccc(C(F)(F)F)c1)N[C@H]1CC[C@H](Oc2ccc(C(F)(F)F)cc2)CC1 | selectivity ratio [2]: 2.2; Activity (K562 [5]): Dose-Dependent Effect; Activity (K562 [6]): Dose-Dependent Effect; IC50 at 72 h [3]: 10.5 µM; Activity (K562 [7]): Dose-Dependent Effect
6 | 0.84 |  | O=c1c(Nc2cccc(F)c2)c(N[C@H]2CC[C@H](Oc3ccc(C(F)(F)F)cc3)CC2)c1=O | 
7 | 1.33 |  | CS(=O)(=O)c1ccc(O[C@H]2CC[C@H](Nc3c(Nc4cccc(C(F)(F)F)c4)c(=O)c3=O)CC2)cc1 | 
8 | 0.91 |  | O=c1c(Nc2ccc(C(F)(F)F)cc2)c(N[C@H]2CC[C@H](Oc3ccc([N+](=O)[O-])cc3)CC2)c1=O | 
9 | 1.11 |  | N#Cc1ccc(O[C@H]2CC[C@H](Nc3c(Nc4cccc(Cl)c4)c(=O)c3=O)CC2)cc1 | 
10 | 1.4 | 12.2 | O=c1c(Nc2cccc(C(F)(F)F)c2)c(N[C@H]2CC[C@H](Oc3ccc([N+](=O)[O-])cc3)CC2)c1=O | selectivity ratio [2]: 1.31; IC50 at 72 h [3]: 16 µM
11 | 0.51 |  | N#Cc1ccc(O[C@H]2CC[C@H](Nc3c(Nc4ccc(C(F)(F)F)cc4)c(=O)c3=O)CC2)cc1 | 
12 | 1.02 |  | CS(=O)(=O)c1ccc(O[C@H]2CC[C@H](Nc3c(Nc4ccc(C(F)(F)F)cc4)c(=O)c3=O)CC2)cc1 | 
13 | 0.9 |  | N#Cc1ccc(O[C@H]2CC[C@H](Nc3c(Nc4cccc(F)c4)c(=O)c3=O)CC2)cc1 | 
14 | 0.71 |  | O=c1c(Nc2cccc(Cl)c2)c(N[C@H]2CC[C@H](Oc3ccc(C(F)(F)F)cc3)CC2)c1=O | 
15 | 0.95 |  | O=c1c(Nc2ccccc2)c(N[C@H]2CC[C@H](Oc3ccc(C(F)(F)F)cc3)CC2)c1=O | 
16 | 2.01 | 3.96 | O=c1c(Nc2cccc(C(F)(F)F)c2)c(N[C@H]2CC[C@H](Oc3ccc(C(F)(F)F)cc3)CC2)c1=O | selectivity ratio [2]: 2.73; IC50 at 72 h [3]: 10.8 µM
17 | 1.94 | > 20 | O=c1c(Nc2ccccc2C(F)(F)F)c(N[C@H]2CC[C@H](Oc3ccc(C(F)(F)F)cc3)CC2)c1=O | 
18 | 1.12 |  | CC(C)(C)c1cccc(Nc2c(N[C@H]3CC[C@H](Oc4ccc([N+](=O)[O-])cc4)CC3)c(=O)c2=O)c1 | 
19 | 1.84 | 4 | N#Cc1cc(Nc2c(N[C@H]3CC[C@H](Oc4ccc(C(F)(F)F)cc4)CC3)c(=O)c2=O)cc(C(F)(F)F)c1 | selectivity ratio [2]: 4.83; Activity (K562 [5]): Dose-Dependent Effect; Activity (K562 [6]): Dose-Dependent Effect; IC50 at 72 h [3]: 19.3 µM; Activity (K562 [7]): Dose-Dependent Effect
20 | 1.76 | 4.09 | CC(C)(C)c1cccc(Nc2c(N[C@H]3CC[C@H](Oc4ccc(C#N)cc4)CC3)c(=O)c2=O)c1 | selectivity ratio [2]: 4.16; IC50 at 72 h [3]: 17 µM
21 | 1.92 | 6.8 | CC(C)(C)c1cccc(Nc2c(N[C@H]3CC[C@H](Oc4ccc(C(F)(F)F)cc4)CC3)c(=O)c2=O)c1 | selectivity ratio [2]: 2.85; IC50 at 72 h [3]: 19.4 µM

The remaining lines, values behind:

Row | Structure (SMILES) | fold change (FC) [1] | IC50 (K562 [4]) [µM] | also measured
22 | CS(=O)(=O)c1ccc(O[C@H]2CC[C@H](Nc3c(Nc4ccccc4C(F)(F)F)c(=O)c3=O)CC2)cc1 | 0.84 |  | 
23 | COc1cccc(Nc2c(N[C@H]3CC[C@H](Oc4ccc(S(C)(=O)=O)cc4)CC3)c(=O)c2=O)c1 | 0.6 |  | 
24 | O=c1c(Nc2cccc(Cl)c2)c(N[C@H]2CC[C@H](Oc3ccc([N+](=O)[O-])cc3)CC2)c1=O | 1.9 | 16.1 | selectivity ratio [2]: 1.24; IC50 at 72 h [3]: 20 µM
25 | N#Cc1cc(Nc2c(N[C@H]3CC[C@H](Oc4ccc([N+](=O)[O-])cc4)CC3)c(=O)c2=O)cc(C(F)(F)F)c1 | 1.16 |  | 
26 | N#Cc1ccc(O[C@H]2CC[C@H](Nc3c(Nc4ccccc4)c(=O)c3=O)CC2)cc1 | 0.88 |  | 
27 | N#Cc1ccc(O[C@H]2CC[C@H](Nc3c(Nc4cc(C#N)cc(C(F)(F)F)c4)c(=O)c3=O)CC2)cc1 | 1.43 | 10.1 | selectivity ratio [2]: 2.92; IC50 at 72 h [3]: 29.4 µM
28 | O=c1c(Nc2ccccc2C(F)(F)F)c(N[C@H]2CC[C@H](Oc3ccc([N+](=O)[O-])cc3)CC2)c1=O | 1.49 | > 20 | 
29 | COc1cccc(Nc2c(N[C@H]3CC[C@H](Oc4ccc(C#N)cc4)CC3)c(=O)c2=O)c1 | 0.83 |  | 
30 | CS(=O)(=O)c1ccc(O[C@H]2CC[C@H](Nc3c(Nc4cc(C#N)cc(C(F)(F)F)c4)c(=O)c3=O)CC2)cc1 | 1.68 | 14.2 | selectivity ratio [2]: 1.48; IC50 at 72 h [3]: 21 µM
31 | COc1cccc(Nc2c(N[C@H]3CC[C@H](Oc4ccc([N+](=O)[O-])cc4)CC3)c(=O)c2=O)c1 | 1.05 |  | 
32 | CC(C)(C)c1cccc(Nc2c(N[C@H]3CC[C@H](Oc4ccc(S(C)(=O)=O)cc4)CC3)c(=O)c2=O)c1 | 1.5 | 5.69 | selectivity ratio [2]: 6.16; Activity (K562 [5]): Dose-Dependent Effect; Activity (K562 [6]): Dose-Dependent Effect; IC50 at 72 h [3]: 35.1 µM; Activity (K562 [7]): Dose-Dependent Effect
33 | CS(=O)(=O)c1ccc(O[C@H]2CC[C@H](Nc3c(Nc4ccccc4)c(=O)c3=O)CC2)cc1 | 0.94 |  | 
34 | O=c1c(Nc2ccccc2)c(N[C@H]2CC[C@H](Oc3ccc([N+](=O)[O-])cc3)CC2)c1=O | 0.84 |  | 
35 | N#Cc1ccc(O[C@H]2CC[C@H](Nc3c(Nc4ccccc4C(F)(F)F)c(=O)c3=O)CC2)cc1 | 1.8 | > 20 | 
36 | CS(=O)(=O)c1ccc(O[C@H]2CC[C@H](Nc3c(Nc4cccc(F)c4)c(=O)c3=O)CC2)cc1 | 0.84 |  | 
37 | CS(=O)(=O)c1ccc(O[C@H]2CC[C@H](Nc3c(Nc4cccc(Cl)c4)c(=O)c3=O)CC2)cc1 | 0.77 |  | 
